Experimental data reported in publication PMC6967409 (Frontiers in Chemistry, 2020).
Several values for one entry are separate records, joined by “and”; a condition that tells them apart may be missing. Identical values can stand only once. Like-named read-outs stand apart in the source and are kept apart here.

Key:
[1] = test system: P. falciparum W2; experiment: T0 [3H]-hypoxanthine drug susceptibility assay; assay type: cell-based; settings: Plasmodium falciparum
[2] = test system: P. falciparum NF54; design: method as in Coertzen et al. (2018); settings: pLDH, 48 h; ref Coertzen et al. (2018); read-out: Metabolic IC50 NF54; cited from earlier work
[3] = test system: P. falciparum Dd2; design: method as in Coertzen et al. (2018); settings: pLDH, 48 h; ref Coertzen et al. (2018); read-out: Metabolic IC50 Dd2; cited from earlier work
[4] = test system: P. falciparum NF54; design: method as in Coertzen et al. (2018); settings: SYBR Green I; ref Coertzen et al. (2018); read-out: Proliferative IC50 NF54; cited from earlier work
[5] = test system: P. falciparum K1; design: method as in Coertzen et al. (2018); settings: SYBR Green I; ref Coertzen et al. (2018); read-out: Proliferative IC50 K1; cited from earlier work
[6] = test system: P. falciparum W2; design: method as in Coertzen et al. (2018); settings: SYBR Green I; ref Coertzen et al. (2018); read-out: Proliferative IC50 W2; cited from earlier work
[7] = test system: P. falciparum NF54 early stage gametocytes (>90% stage I–III); design: method as in Coertzen et al. (2018); settings: read-out: Early Stage (EG, Luc 48 h) IC50; >90% stage I–III gametocytes; ref Coertzen et al. (2018); cited from earlier work
[8] = test system: P. falciparum NF54 late stage gametocytes (>90% stage IV and V); design: method as in Coertzen et al. (2018); settings: read-out: Late Stage (LG, Luc 72 h) IC50; >90% stage IV and V gametocytes; ref Coertzen et al. (2018); cited from earlier work
[9] = test system: Chinese hamster ovarian (CHO) cells; settings: read-out: Cytotoxicity EC50 CHO; MTT assay; ref Coertzen et al. (2018); cited from earlier work
[10] = test system: P. falciparum NF54; experiment: Metabolic (parasite LDH) assay, asexual ring stage parasites, 48 h; assay type: cell-based; settings: Plasmodium falciparum, pLDH, CQ-sensitive NF54
Method: (§1) P. falciparum parasites (NF54, K1, and W2) were cultured in vitro in human erythrocytes (A^+ or O^+) under 90% N2, 5% CO2, and 5% O2 atmospheric conditions with supplemented RPMI 1640 media (Sigma Aldrich) containing Albumax II, as previously described (Verlinden et al., [2011]). This study was carried out according the guidelines set out by the Faculty of Health Sciences Ethical Committee, Ethical Clearance no. EC-120821/077. The protocol was approved by the Faculty of Health sciences ethical committee at the University of Pretoria. All subjects gave written informed consent in accordance with the Declaration of Helsinki. Parasite proliferation was monitored microscopically using Giemsa stained smears. Synchronized ring stage parasites (>95%) were obtained using a 5% D-sorbitol (Sigma Aldrich) treatment. […] Gametocyte cultures were kept stationary under 90% N2, 5% CO2, and 5% O2 atmospheric conditions at 37°C and treated with 50 mM N-acetyl-glucosamine (NAG) to eliminate residual invasion of asexual parasites.
(§2) Working solutions of the derivatives were prepared from a 10 mM stock solution in 100% DMSO in supplemented RPMI 1640 media containing Albumax II with a final DMSO concentration of <0.1%, previously determined as being non-toxic to intraerythrocytic asexual parasites and gametocytes. Dose responses were assayed using a two-fold serial drug dilution on in vitro >95% ring stage intraerythrocytic P. falciparum parasites at 37°C under 90% N2, 5% CO2, and 5% O2 atmospheric conditions, detecting both parasite lactate dehydrogenase (pLDH) activity as a metabolic marker following a 48 h drug exposure (1.5–2% parasitemia and 2% hematocrit; Makler et al., [1993]) and SYBR Green I fluorescence as proliferative marker following a 96 h drug exposure (1% parasitemia and 1% hematocrit). […] Data analysis was performed using GraphPad Prism 7.

[11] = test system: P. falciparum Dd2; experiment: as above; assay type: cell-based; settings: Plasmodium falciparum, pLDH, Dd2 CQ, pyrimethamine resistant
Method: as §2

[12] = test system: P. falciparum K1; experiment: Proliferative (SYBR Green I) assay, asexual parasites, 96 h; assay type: cell-based; settings: Plasmodium falciparum, ±SEM
Method: as §1, §2

[13] = test system: P. falciparum NF54; experiment: as above; assay type: cell-based; settings: Plasmodium falciparum, ±SEM
Method: as §1, §2

[14] = test system: P. falciparum W2; experiment: as above; assay type: cell-based; settings: Plasmodium falciparum, ±SEM
Method: as §1, §2

[15] = Cytotoxicity, MTT assay; assay type: cell-based; settings: Chinese hamster, CHO cells
Method: (§3) Cytotoxicity (EC50) was determined against Chinese hamster ovarian (CHO) using a 3-(4,5-dimethylthiazol-2-yl)-2,5-diphenyltetrazolium bromide (MTT) assay and hepatocellular carcinoma cells (HepG2) using the Cytoselect LDH cytotoxicity assay kit (Cell Biolabs).

[16] = Cytotoxicity, Cytoselect LDH cytotoxicity assay kit; assay type: cell-based; settings: human, HepG2 cells
Method: as §3

[17] = test system: P. falciparum NF54 early stage gametocytes (>90% stage I–III); experiment: Gametocytocidal luciferase reporter assay, early stage, 48 h; assay type: cell-based; settings: Plasmodium falciparum, NF54, 48 h, read-out: Early Stage (EG, Luc 48 h) IC50
Method: as §1
(§4) Gametocytocidal activity was determined using the luciferase reporter line (Reader et al., [2015]) to derive dose responses with two-fold serial drug dilutions for 48 h against early stage gametocytes (day 5 post-induction population, >90% stage I–III) and 10-fold serial drug dilutions for 72 h against late stage gametocytes (day 10 post-induction population, >90% late stage IV–V) (2% gametocytemia, 2% hematocrit), at 37°C under 90% N2, 5% CO2, and 5% O2 atmospheric conditions.

[18] = test system: P. falciparum NF54 late stage gametocytes (>90% stage IV and V); experiment: Gametocytocidal luciferase reporter assay, late stage, 72 h; assay type: cell-based, Plasmodium falciparum; settings: Plasmodium falciparum, NF54, 72 h, read-out: Late Stage (LG, Luc 72 h) IC50, >90% stage IV and V gametocytes, ±SEM
Method: as §1, §4

[19] = test system: P. berghei ANKA GFP-Luc-SMcon sporozoites; experiment: P. berghei-luciferase liver stage bioluminescence assay (causal prophylactic mode) in HepG2-CD81 cells; assay type: cell-based, Plasmodium berghei; settings: for Emax: 48 h, read-out: P.berghei-Luciferase Liver Stage Bioluminescence Assay: Maximum measured (%); for inhibition at 10 µM: read-out: P. berghei sporozoites Maximum inhibition %
Method: (§5) Briefly, HepG2-CD81 cells were seeded into 1,536 well plates containing 50 nL of test and control compounds diluted into DMSO. […] Next, 2 μL of luciferin reagent (Promega BrightGlo) was added to each well and luciferase activity was detected using a Perkin Elmer Envision plate reader. […] In parallel, plates were processed without sporozoites for HepG2 toxicity measurements.
(§6) In continuation of the transmission blocking theme, it is important to establish activities against liver stage parasites. […] This assay uses ultra-high-throughput screening methods optimized for a 1536-well format and a HepG2 human hepatoma cell line. […] To establish selectivity of the compounds for the parasite in the liver stage of infection, cytotoxicity was determined by measuring bioluminescence from the reaction between free ATP of compound-treated, uninfected hepatocytes and a luciferase reporter system.

[20] = HepG2 cytotoxicity bioluminescence assay (CellTiterGlo, ATP); assay type: cell-based, human; settings: human, uninfected HepG2-CD81 cells; for IC50 at 72 h: two biological replicates listed in one cell; for EC50 at 72 h: uninfected HepG2, ATP bioluminescence
Method: as §5, §6

[21] = test system: HepG2 cells; experiment: as above; assay type: cell-based, human; settings: two biological replicates listed in one cell
Method: as §5, §6

[22] = test system: asexual P. falciparum NF54, Dd2, K1, W2; experiment: Asexual P. falciparum, metabolic (pLDH) and proliferative (SYBR Green I) platforms; assay type: cell-based; settings: Plasmodium falciparum; read-out: IC50 for drug sensitive NF54 parasites across both assay platforms
Method: Data analysis was performed using GraphPad Prism 7.
The in vitro activities of the new derivatives were determined against drug sensitive NF54 and multi-drug resistant Dd2, K1, and W2 intraerythrocytic asexual P. falciparum malaria parasite strains using both a metabolic (parasite LDH) and a proliferative (SYBR Green I fluorescence) assay readout (Table 1).

[23] = Plasmodium berghei, two biological replicates listed in one cell
[24] = Plasmodium berghei, two biological replicates listed in one cell, read-out: P.berghei-Luciferase Liver Stage Bioluminescence Assay: IC50

CC1CCC2C(C)C(Nc3ccc(F)cc3)OC3OC4(C)CCC1C32OO4 (stereo not drawn) [Arylamine 12]
IC50 ([1]; W2, read-out: W2 IC50): 4.76 ± 0.38 nM | IC90 ([1]; W2, read-out: W2 IC90): 8.51 ± 0.34 nM | IC50 [2]: 7.8 ± 1.9 nM | IC50 [3]: 11.1 ± 1 nM | IC50 [4]: 1.3 ± 0.6 nM | IC50 [5]: 0.64 ± 0.1 nM | IC50 [6]: 3 ± 1 nM | IC50 [7]: 38.2 ± 9 nM | IC50 [8]: 16.4 ± 6.38 nM | EC50 [9]: 2900 ± 1400 nM

C[C@H]1[C@H](N2CCN(C(=O)Nc3ccc(C(F)(F)F)cc3)CC2)O[C@@H]2O[C@@]3(C)CC[C@H]4[C@H](C)CC[C@@H]1[C@@]24OO3 [Compound 23]
IC50 [10]: 1.83 ± 0.2 nM | IC50 [11]: 12.2 ± 1.9 nM | IC50 [12]: 1.12 ± 0.13 nM | IC50 [13]: 1.55 ± 0.08 nM | IC50 [14]: 1.41 ± 0.09 nM | EC50 [15]: 185000 nM | EC50 [16]: 453 nM | IC50 ([17]; >90% stage I–III gametocytes, ±SEM): 20 ± 9.4 nM | IC50 [18]: 1 ± 0.3 nM | Emax [19, 23]: 99.5% | IC50 ([19]; Plasmodium berghei, HepG2, 48 h, liver stage, HepG2 host cells, luciferase after 48 h, ±SD, read-out: P. berghei sporozoites IC50): 82.5 ± 4.17 nM | IC50 [19, 24]: 79.6 nM | inhibition at 10 µM ([19]; Plasmodium berghei, Conc. 10 μM): 105 ± 7.42% | IC50 ([19]; two biological replicates listed in one cell, listed as 23 (WHN-11), read-out: P.berghei-Luciferase Liver Stage Bioluminescence Assay: IC50): 85.5 nM | IC50 at 72 h [20]: 6990 nM | EC50 at 72 h [20]: 5450 nM | HepG2 Cytotoxicity Bioluminescence Assay: Maximum measured (%) ([21]; listed as 23 (WHN-11)): 50.9% and 55.9% | IC50 ([21]; listed as 23 (WHN-11)): 3910 nM | IC50 [22]: 1 to 2 nM

C[C@H]1[C@H](N2CCN(C(=O)Nc3ccc(F)cc3)CC2)O[C@@H]2O[C@@]3(C)CC[C@H]4[C@H](C)CC[C@@H]1[C@@]24OO3 [Compound 24]
IC50 [10]: 1.21 ± 0.04 nM | IC50 [11]: 9.2 ± 1.9 nM | IC50 [12]: 0.85 ± 0.1 nM | IC50 [13]: 1.3 ± 0.1 nM | IC50 [14]: 1.16 ± 0.17 nM | EC50 [15]: 204000 nM | EC50 [16]: 340 nM | IC50 [17]: 36 ± 10.2 nM | IC50 [18]: 17 ± 7 nM | Emax [19, 23]: 99.2% | IC50 ([19]; Plasmodium berghei, HepG2, 48 h, read-out: P. berghei sporozoites IC50, liver stage, HepG2 host cells, luciferase after 48 h, ±SD): 106 ± 6.36 nM | inhibition at 10 µM ([19]; Plasmodium berghei): 94.8 ± 2.76% | IC50 [19, 24]: 101 nM | IC50 ([19]; two biological replicates listed in one cell, listed as 24 (WHN-12), read-out: P.berghei-Luciferase Liver Stage Bioluminescence Assay: IC50): 110 nM | IC50 at 72 h [20]: 6440 nM | EC50 at 72 h [20]: 5160 nM | HepG2 Cytotoxicity Bioluminescence Assay: Maximum measured (%) ([21]; listed as 24 (WHN-12)): 59.5% and 66.1% | IC50 ([21]; listed as 24 (WHN-12)): 3880 nM | IC50 [22]: 1 to 2 nM
